# “Also recorded” adds a separate entry of the source. Like-named read-outs stand apart in the source and are kept apart here.
# Columns and labels:
# [1] = target: T1, human GLP-1R (Homo sapiens, UniProt P43220); assay: GLP-1R cAMP assay (Example B1a, HTRF, 30 min at room temperature); format: cell-based
# T1 construct: host or cells: HEK293
# Outline: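 Competitive HTRF read-out of cAMP after 30 min room-temperature stimulation, BETP absent, of human GLP-1R-HEK293 cells (1,000/well) in HEPES buffer with 500 μM IBMX and 0.1% BSA. Activation normalised to GLP-1(7-37) positive control. EC50 from 4-parameter non-linear regression.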
# [2] = cynomolgus monkey, in vivo
# Protocol: (§2) Pharmacokinetic Analysis of the Compound 36, Compound 121, Compound 214, and Orforglipron in Cynomolgus Monkeys
# (§3) Non naïve male cynomolgus monkeys (n=3 monkeys/group) were fasted overnight and fed 4 hours post dose. Compounds of the present application were formulated in 10% polyethylene glycol 400/10% propylene glycol/80% glycine buffer (100 mM glycine, 64 mM NaOH, pH 10).
# (§4) The compound was administered by i.v. infusion for 30 minutes at 0.12 mg/kg (dose volume 1 mL/kg at a speed of 2 mL/kg/h) or orally doses of 0.36 mg/kg. Blood samples were collected pre-dose and 0.25, 0.5 (just before the infusion is stopped), 0.75, 1, 1.5, 2.5, 4, 8, 16, 24 hr post dose for i.v. administration group. Blood samples were also collected pre-dose, 0.5, 1, 2, 3, 4, 8, 16 and 24 hr after administration in orally dosing group.
# [3] = Pharmacokinetic analysis in male SD rats; format: in vivo
# Protocol: The rats have free access to food and water. Blood samples were collected pre-dose and 0.083, 0.25, 0.5, 1, 2, 4, 8, 24 hours post dose for i.v. administration group. Blood samples were also collected pre-dose and 0.25, 0.5, 1, 2, 4, 8, and 24 hours after administration in orally dosing group.
# [4] = tested on: ex-vivo cultured islets from a healthy donor; assay: Glucose-Stimulated Insulin Secretion (GSIS) assay, islets from a healthy donor; format: cell-based; settings: compared to DMSO, FIG. 2
# Protocol: (§1) Glucose-Stimulated Insulin Secretion (GSIS) Assay
# Purified islets from healthy or Type 2 diabetic donors (Prodo Laboratory, Inc., Aliso Viejo, CA) were cultured in PIM(S) media (Prodo) with 8 mM or 11 mM glucose in a 37° C. water-jacketed incubator with 5% CO2. The GSIS assay followed published procedure (Zhu et al. 2015; Ho et al. 2023). Briefly, islets were conditioned in Krebs-Ringer bicarbonate buffer (KRB, 111 mM NaCl, 4.8 mM KCl, 25 mM NaHCO3, 2.3 mM CaCl2, 1.2 mM MgSO4, 0.15 mM Na2HPO4, 1.2 mM KH2PO4, 10 mM HEPES, 0.2% BSA) containing 2.8 mM glucose for 2 hours with 0.05% DMSO, compound 36 or orforglipron. Size-matched islets were used for each test condition. Islets were washed with KRB once and incubated in fresh KRB containing 2.8 mM glucose with 0.05% DMSO or corresponding compound for one hour to measure the basal insulin secretion in 2.8 mM glucose. Glucose concentration was increased to 11 mM and islets stimulated for one hour in the presence of 0.05% DMSO or corresponding compound to measure stimulated insulin secretion. Supernatants were harvested and insulin secreted under basal and glucose stimulated conditions were quantified using an ELISA kit (ALPCO, Salem, NH). Islets were lysed and genomic DNA was extracted using silicon spin column (Qiagen, Venlo, Netherlands). Insulin secretion was normalized to total genomic DNA. […]
# [5] = in vivo; settings: male, cynomolgus monkey
# Protocol: as §2, §3, §4
# [6] = tested on: Type 2 diabetic donor islets; assay: Glucose-stimulated insulin secretion (GSIS) in Type 2 diabetic donor islets cultured ex vivo; format: cell-based; settings: islets cultured ex vivo for 8 days (FIG. 1A) or 12 days (FIG. 1B); compared with orforglipron or DMSO
# Protocol: Islets from a Type 2 diabetic donor were cultured ex vivo for 8 days (FIG. 1A) or 12 days (FIG. 1B) were assayed for GSIS in the presence of compound 36 (cpd 36), orforglipron or DMSO. Basal insulin secretion, stimulated insulin secretion and secretion index were measured.
# [7] = tested on: ex-vivo cultured islets from a T2D donor; assay: Glucose-Stimulated Insulin Secretion (GSIS) assay, islets from a T2D donor; format: cell-based
# Protocol: as §1
# Purified islets from healthy or Type 2 diabetic donors (Prodo Laboratory, Inc., Aliso Viejo, CA) were cultured in PIM(S) media (Prodo) with 8 mM or 11 mM glucose in a 37° C. water-jacketed incubator with 5% CO2. The GSIS assay followed published procedure (Zhu et al. 2015; Ho et al. 2023). Briefly, islets were conditioned in Krebs-Ringer bicarbonate buffer (KRB, 111 mM NaCl, 4.8 mM KCl, 25 mM NaHCO3, 2.3 mM CaCl2, 1.2 mM MgSO4, 0.15 mM Na2HPO4, 1.2 mM KH2PO4, 10 mM HEPES, 0.2% BSA) containing 2.8 mM glucose for 2 hours with 0.05% DMSO, compound 36 or orforglipron. Size-matched islets were used for each test condition. Islets were washed with KRB once and incubated in fresh KRB containing 2.8 mM glucose with 0.05% DMSO or corresponding compound for one hour to measure the basal insulin secretion in 2.8 mM glucose. Glucose concentration was increased to 11 mM and islets stimulated for one hour in the presence of 0.05% DMSO or corresponding compound to measure stimulated insulin secretion. Supernatants were harvested and insulin secreted under basal and glucose stimulated conditions were quantified using an ELISA kit (ALPCO, Salem, NH). Islets were lysed and genomic DNA was extracted using silicon spin column (Qiagen, Venlo, Netherlands). Insulin secretion was normalized to total genomic DNA.
# Insulin secretion index is the ratio of stimulated insulin secretion at 11 mM glucose/basal insulin secretion at 2.8 mM glucose. […] (Ho, K. H., A. Jayathilake, Y. Mahircan, A. Nour, A. B. Osipovich, M. A. Magnuson, G. Gu, and I. Kaverina. 2023. CAMSAP2 localizes to the Golgi in islet beta-cells and facilitates Golgi-ER trafficking, iScience, 26:105938.Zhu X., R. Hu, M. Brissova, R. W. Stein, A. C. Powers, G. Gu, and I. Kaverina. 2015. Microtubules Negatively Regulate Insulin Secretion in Pancreatic beta Cells, Dev Cell, 34:656-68).
# [8] = tested on: islets from a non-diabetic donor; assay: Glucose-stimulated insulin secretion (GSIS) in non-diabetic donor islets cultured ex vivo; format: cell-based; settings: compared with orforglipron or DMSO
# Protocol: Donor islets cultured ex vivo were assayed for GSIS in the presence of compound 36 (cpd 36), orforglipron or DMSO. Basal insulin secretion, stimulated insulin secretion and secretion index were measured.
# Donor islets cultured ex vivo were assayed for GSIS in the presence of compound 214, orforglipron or DMSO. Basal insulin secretion, stimulated insulin secretion and secretion index were measured.
# [9] = Sprague-Dawley (SD), rat, plasma, 1.0 mg/kg iv
# [10] = Sprague-Dawley (SD), rat, plasma, 5.0 mg/kg po
# T1 sequence (P43220 24-463): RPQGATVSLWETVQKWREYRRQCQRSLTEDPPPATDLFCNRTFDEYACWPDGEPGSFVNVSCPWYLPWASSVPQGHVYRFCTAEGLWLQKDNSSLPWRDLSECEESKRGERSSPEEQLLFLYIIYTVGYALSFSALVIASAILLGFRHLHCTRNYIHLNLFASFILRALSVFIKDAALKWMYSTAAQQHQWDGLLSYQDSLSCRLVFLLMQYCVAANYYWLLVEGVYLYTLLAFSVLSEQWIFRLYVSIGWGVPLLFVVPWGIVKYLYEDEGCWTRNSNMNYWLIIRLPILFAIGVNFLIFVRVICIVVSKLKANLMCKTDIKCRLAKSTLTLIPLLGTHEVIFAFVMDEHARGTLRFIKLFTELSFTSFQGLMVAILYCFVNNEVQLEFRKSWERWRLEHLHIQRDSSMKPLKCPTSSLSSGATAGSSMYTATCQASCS
smiles,measurement,setting,value
"Cc1cc(-n2nc3c(c2-n2ccn(-c4ccc5c(cnn5C)c4F)c2=O)[C@@H]2CC[C@H](C3)N2C(=O)c2cc3cc([C@H]4CCOC(C)(C)C4)ccc3n2[C@@]2(c3noc(=O)[nH]3)C[C@@H]2C)cc(C)c1F [Compound 36, 3-((1S,2S)-1-(5-((S)-2,2-dimethyltetrahydro-2H-pyran-4-yl)-2-((4S,7R)-3-(3-(4-fluoro-1-methyl-1H-indazol-5-yl)-2-oxo-2,3-dihydro-1H-imidazol-1-yl)-2-(4-fluoro-3,5-dimethylphenyl)-2,4,5,6,7,8-hexahydro-4,7-epiminocyclohepta [c]pyrazole-9-carbonyl)-1H-indol-1-yl)-2-methylcyclopropyl)-1,2,4-oxadiazol-5(4H)-one]",EC50 Ratio,"[1]; Table 1d, potency ratio of stereoisomer pair (less potent / more potent isomer)",>94
same,EC50,"[1]; Table 1d, stereoisomer pairs, read-out: EC50",109 nM
same,EC50,"[1]; cAMP accumulation in HEK293 expressing human GLP-1R, no BETP, 30 min room temperature (Method B1a, compounds ID 1-609), Table 1, read-out: EC50",109 nM
same,EC50,"[1]; text to Table 1d, bridge atoms configured into the plane or away from the reader, read-out: potency (EC50)",< 1000 nM
same,oral bioavailability compared with Orforglipron,[2],better oral bioavailability
same,Oral F,[2]; male,50.2%
same,Oral F,[3]; 5.0 mg/kg po vs 1.0 mg/kg iv,29.6%
same,AUC(0-inf),[3]; [9],5050 ng·h/mL
same,clearance,[3]; [9],3.33 mL/min/kg
same,half-life,[3]; [9],5.04 h
same,Vd,"[3]; Sprague-Dawley (SD), rat, plasma, 1.0 mg/kg iv, read-out: Vdss",1.09 L/kg
same,AUC(0-inf),[3]; [10],7480 ng·h/mL
same,Cmax,[3]; [10],610 ng/mL
same,Tmax,[3]; [10],3.33 h
same,half-life,[3]; [10],4.93 h
same,exposure compared with Orforglipron,[3]; same doses (iv 1 mg/kg and po 5 mg/kg),significant higher exposure
same,insulin secretion upon glucose stimulation,[4],potentiated islets to secrete more insulin upon glucose stimulation compared to DMSO
same,AUC(0-inf),"[5]; iv, 0.12 mg/kg",512 ng·h/mL
same,Vd,"[5]; iv, 0.12 mg/kg",1.13 L/kg
same,clearance,"[5]; iv, 0.12 mg/kg",3.98 mL/min/kg
same,half-life,"[5]; iv, 0.12 mg/kg",4.55 h
same,AUC(0-inf),"[5]; po, 0.36 mg/kg",771 ng·h/mL
same,Cmax,"[5]; po, 0.36 mg/kg",121 ng/mL
same,Tmax,"[5]; po, 0.36 mg/kg",2 h
same,half-life,"[5]; po, 0.36 mg/kg",4.22 h
same,responsiveness of Type 2 diabetic donor islets to glucose stimulation (GSIS),[6],increases the responsiveness of Type 2 diabetic donor islets to glucose stimulation
same,basal insulin secretion,"[7]; 2.8 mM glucose, FIG. 1A",decreased
same,stimulated insulin,"[7]; 11 mM glucose, FIG. 1A",improved
same,glucose-stimulated insulin secretion (GSIS),[7]; FIG. 1,potentiated GSIS; also recorded: overall relatively better than orforglipron
same,insulin secretion index,"[7]; ratio of stimulated insulin secretion at 11 mM glucose/basal insulin secretion at 2.8 mM glucose, FIG. 1B",improved
same,glucose-stimulated insulin secretion in islets from a non-diabetic donor,[8],increases glucose-stimulated insulin secretion

# Source: patent publication US12617783B2, “Heterocyclic GLP-1R agonists” (BIOMEA FUSION, INC., priority 2024, dated 2026)
